Test results as given in PubChem BioAssay AID2060892 (Molecular Pharmacology Branch, DTP, NCI, 2025).
pIC50: −log10 of the molar value.

System: HOP-62 complex spheroids with HUVEC/MSC, viability
Assay: Anticancer human tumor HOP-62 cell line growth inhibition [RAS];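 further: spheroids exposed to agents for seven days before readout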;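 on viability, T/C: 100% = DMSO vehicle control viability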
Conditions: for pIC50: curve of first compound; for viability, T/C: stronger effect = lower value
In short: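 Multi-cell-type spheroids: tumor cells plus HUVEC endothelial cells and mesenchymal stem cells. RAS-pathway inhibitors were combined with targeted agents, each dosed in half-log steps down from clinical Cmax, or from 10 microM when Cmax was unknown.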

[1] = second compound 0.000949 µM, first compound 0.0316 µM
[2] = second compound 0.000949 µM, first compound 0.1 µM
[3] = second compound 0.000949 µM, first compound 0.316 µM
[4] = second compound 0.000949 µM, first compound 1 µM
[5] = second compound 0.000949 µM, first compound 3.16 µM
[6] = second compound 0.000949 µM, first compound 10 µM
[7] = second compound 0.003 µM, first compound 0.0316 µM
[8] = second compound 0.003 µM, first compound 0.1 µM
[9] = second compound 0.003 µM, first compound 0.316 µM
[10] = second compound 0.003 µM, first compound 1 µM
[11] = second compound 0.003 µM, first compound 3.16 µM
[12] = second compound 0.003 µM, first compound 10 µM
[13] = second compound 0.00949 µM, first compound 0.0316 µM
[14] = second compound 0.00949 µM, first compound 0.1 µM
[15] = second compound 0.00949 µM, first compound 0.316 µM
[16] = second compound 0.00949 µM, first compound 1 µM
[17] = second compound 0.00949 µM, first compound 3.16 µM
[18] = second compound 0.00949 µM, first compound 10 µM
[19] = second compound 0.03 µM, first compound 0.0316 µM
[20] = second compound 0.03 µM, first compound 0.1 µM
[21] = second compound 0.03 µM, first compound 0.316 µM
[22] = second compound 0.03 µM, first compound 1 µM
[23] = second compound 0.03 µM, first compound 3.16 µM
[24] = second compound 0.03 µM, first compound 10 µM
[25] = second compound 0.0949 µM, first compound 0.0316 µM
[26] = second compound 0.0949 µM, first compound 0.1 µM
[27] = second compound 0.0949 µM, first compound 0.316 µM
[28] = second compound 0.0949 µM, first compound 1 µM
[29] = second compound 0.0949 µM, first compound 3.16 µM
[30] = second compound 0.0949 µM, first compound 10 µM
[31] = second compound 0.3 µM, first compound 0.0316 µM
[32] = second compound 0.3 µM, first compound 0.1 µM
[33] = second compound 0.3 µM, first compound 0.316 µM
[34] = second compound 0.3 µM, first compound 1 µM
[35] = second compound 0.3 µM, first compound 3.16 µM
[36] = second compound 0.3 µM, first compound 10 µM

## Cc1nc(N2CCC3(CC2)COC(C)C3N)c(CO)nc1Sc1ccnc(N)c1Cl (stereo unspecified) + CCn1c(-c2cccnc2C(C)OC)c2c3cc(ccc31)N1CCOC(CC(NC(=O)C(C(C)C)N(C)C(=O)C3(F)CCN(C(=O)C#CC(C)(C)N(C)C)CC3)C(=O)N3CCCC(N3)C(=O)OCC(C)(C)C2)C1
Second compound 0.000949 µM
  pIC50: 5.53
Second compound 0.003 µM
  pIC50: 6.27
Second compound 0.00949 µM
  pIC50: 6.13
Second compound 0.03 µM
  pIC50: 6.33
Second compound 0.0949 µM
  pIC50: 6.52
Second compound 0.3 µM
  pIC50: 6.67
[1]
  viability, T/C: 120%
[2]
  viability, T/C: 101%
[3]
  viability, T/C: 60.3%
[4]
  viability, T/C: 65.7%
[5]
  viability, T/C: 63.3%
[6]
  viability, T/C: 31.3%
[7]
  viability, T/C: 107%
[8]
  viability, T/C: 80.1%
[9]
  viability, T/C: 42.9%
[10]
  viability, T/C: 55.6%
[11]
  viability, T/C: 35.3%
[12]
  viability, T/C: 18.3%
[13]
  viability, T/C: 80.7%
[14]
  viability, T/C: 59.4%
[15]
  viability, T/C: 83.1%
[16]
  viability, T/C: 41.3%
[17]
  viability, T/C: 23.9%
[18]
  viability, T/C: 22.4%
[19]
  viability, T/C: 77.8%
[20]
  viability, T/C: 70.5%
[21]
  viability, T/C: 58.5%
[22]
  viability, T/C: 34.9%
[23]
  viability, T/C: 20.1%
[24]
  viability, T/C: 20.9%
[25]
  viability, T/C: 81.4%
[26]
  viability, T/C: 64.2%
[27]
  viability, T/C: 51.5%
[28]
  viability, T/C: 35.5%
[29]
  viability, T/C: 19.8%
[30]
  viability, T/C: 23%
[31]
  viability, T/C: 84.8%
[32]
  viability, T/C: 66.1%
[33]
  viability, T/C: 41.6%
[34]
  viability, T/C: 26.5%
[35]
  viability, T/C: 20.3%
[36]
  viability, T/C: 19.4%

## NC1c2ccccc2OC12CCN(c1cnc3c(N4CCCc5ncccc54)n[nH]c3n1)CC2 (stereo unspecified) + CCn1c(-c2cccnc2C(C)OC)c2c3cc(ccc31)N1CCOC(CC(NC(=O)C(C(C)C)N(C)C(=O)C3(F)CCN(C(=O)C#CC(C)(C)N(C)C)CC3)C(=O)N3CCCC(N3)C(=O)OCC(C)(C)C2)C1
Second compound 0.000949 µM
  pIC50: 6.74
Second compound 0.003 µM
  pIC50: 6.37
Second compound 0.00949 µM
  pIC50: 7.28
Second compound 0.03 µM
  pIC50: 7.19
Second compound 0.0949 µM
  pIC50: 7.41
Second compound 0.3 µM
  pIC50: > 7.50
[1]
  viability, T/C: 91.2%
[2]
  viability, T/C: 70.6%
[3]
  viability, T/C: 27.8%
[4]
  viability, T/C: 44.5%
[5]
  viability, T/C: 33.4%
[6]
  viability, T/C: 19.4%
[7]
  viability, T/C: 69.4%
[8]
  viability, T/C: 48.5%
[9]
  viability, T/C: 60.5%
[10]
  viability, T/C: 23.9%
[11]
  viability, T/C: 19.3%
[12]
  viability, T/C: 9.81%
[13]
  viability, T/C: 60%
[14]
  viability, T/C: 35.3%
[15]
  viability, T/C: 29.6%
[16]
  viability, T/C: 22.7%
[17]
  viability, T/C: 14.8%
[18]
  viability, T/C: 13.2%
[19]
  viability, T/C: 64.1%
[20]
  viability, T/C: 42.1%
[21]
  viability, T/C: 24%
[22]
  viability, T/C: 28.3%
[23]
  viability, T/C: 12%
[24]
  viability, T/C: 14.6%
[25]
  viability, T/C: 53.3%
[26]
  viability, T/C: 35.5%
[27]
  viability, T/C: 20.7%
[28]
  viability, T/C: 16.8%
[29]
  viability, T/C: 11.5%
[30]
  viability, T/C: 14.7%
[31]
  viability, T/C: 44.4%
[32]
  viability, T/C: 28.6%
[33]
  viability, T/C: 18.4%
[34]
  viability, T/C: 15.6%
[35]
  viability, T/C: 13.5%
[36]
  viability, T/C: 15.2%

## Nc1ccn(C2OC(CO)C(O)C2(F)F)c(=O)n1 (stereo unspecified) + CCn1c(-c2cccnc2C(C)OC)c2c3cc(ccc31)N1CCOC(CC(NC(=O)C(C(C)C)N(C)C(=O)C3(F)CCN(C(=O)C#CC(C)(C)N(C)C)CC3)C(=O)N3CCCC(N3)C(=O)OCC(C)(C)C2)C1
Second compound 0.000949 µM
  pIC50: 7.85
Second compound 0.003 µM
  pIC50: 8.04
Second compound 0.00949 µM
  pIC50: 8.09
Second compound 0.03 µM
  pIC50: 7.97
Second compound 0.0949 µM
  pIC50: 8.02
Second compound 0.3 µM
  pIC50: 8.06
Second compound 0.000949 µM, first compound 0.00316 µM
  viability, T/C: 111%
Second compound 0.000949 µM, first compound 0.01 µM
  viability, T/C: 66.9%
[1]
  viability, T/C: 9.65%
[2]
  viability, T/C: 7.4%
[3]
  viability, T/C: 7.76%
[4]
  viability, T/C: 5.24%
Second compound 0.003 µM, first compound 0.00316 µM
  viability, T/C: 104%
Second compound 0.003 µM, first compound 0.01 µM
  viability, T/C: 45.6%
[7]
  viability, T/C: 18.4%
[8]
  viability, T/C: 7.14%
[9]
  viability, T/C: 8.39%
[10]
  viability, T/C: 5.94%
Second compound 0.00949 µM, first compound 0.00316 µM
  viability, T/C: 87.8%
Second compound 0.00949 µM, first compound 0.01 µM
  viability, T/C: 41%
[13]
  viability, T/C: 22.8%
[14]
  viability, T/C: 10.3%
[15]
  viability, T/C: 10.9%
[16]
  viability, T/C: 5.88%
Second compound 0.03 µM, first compound 0.00316 µM
  viability, T/C: 90%
Second compound 0.03 µM, first compound 0.01 µM
  viability, T/C: 51.2%
[19]
  viability, T/C: 22.7%
[20]
  viability, T/C: 8.44%
[21]
  viability, T/C: 4.99%
[22]
  viability, T/C: 7.65%
Second compound 0.0949 µM, first compound 0.00316 µM
  viability, T/C: 83.9%
Second compound 0.0949 µM, first compound 0.01 µM
  viability, T/C: 48.5%
[25]
  viability, T/C: 21.7%
[26]
  viability, T/C: 8.95%
[27]
  viability, T/C: 5.53%
[28]
  viability, T/C: 6.69%
Second compound 0.3 µM, first compound 0.00316 µM
  viability, T/C: 77.8%
Second compound 0.3 µM, first compound 0.01 µM
  viability, T/C: 45.9%
[31]
  viability, T/C: 22.9%
[32]
  viability, T/C: 8.24%
[33]
  viability, T/C: 8.97%
[34]
  viability, T/C: 8.38%
